Assay results taken from BindingDB's records for doi:10.1016/j.bmc.2018.05.045 (University of Arizona, 2018).
Where a SMILES comes first, the peptide text is derived from it.

Columns and labels:
[1] = biological target: T1, Kappa-type opioid receptor (Homo sapiens, UniProt P41145); test: Agonist activity at KOR (unknown origin) expressed in HEK cells assessed as reduction in cAMP accumulation by split luciferase assay
[2] = biological target: T1, Kappa-type opioid receptor; test: Displacement of [3H]U69593 from KOR (unknown origin) expressed in HEK cells

T1 sequence (P41145 whole entry): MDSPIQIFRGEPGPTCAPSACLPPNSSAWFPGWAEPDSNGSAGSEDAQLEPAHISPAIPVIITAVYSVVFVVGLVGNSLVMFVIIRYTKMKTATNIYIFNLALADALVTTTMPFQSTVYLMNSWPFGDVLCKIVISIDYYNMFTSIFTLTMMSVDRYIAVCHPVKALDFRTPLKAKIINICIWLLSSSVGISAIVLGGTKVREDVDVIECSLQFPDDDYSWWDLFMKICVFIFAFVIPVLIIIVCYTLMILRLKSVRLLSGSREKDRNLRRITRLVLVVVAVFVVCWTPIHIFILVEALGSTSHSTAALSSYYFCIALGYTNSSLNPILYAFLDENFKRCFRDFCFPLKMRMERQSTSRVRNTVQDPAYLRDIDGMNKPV

CC1(C)SSC(C)(C)[C@H](NC(=O)[C@@H](N)Cc2ccc(O)cc2)C(=O)NCC(=O)N[C@@H](Cc2ccccc2)C(=O)N2CCN(CC2)C(=O)[C@H](Cc2ccccc2)NC(=O)CNC(=O)[C@H]1NC(=O)[C@@H](N)Cc1ccc(O)cc1 (HELM PEPTIDE1{Y.[Pen].G.F}|PEPTIDE2{Y.[Pen].G.F}|CHEM1{[C1CN([*:2])CCN1[*:1]]}$PEPTIDE1,PEPTIDE2,2:R3-2:R3|PEPTIDE1,CHEM1,4:R2-1:R1|PEPTIDE2,CHEM1,4:R2-1:R2$$$V2.0)
EC50 [1]: 269 nM | Ki [2]: 5.6 nM
